Assay results: patent US9980928B2, “Hydroxy aliphatic substituted phenyl aminoalkyl ether derivatives” (PROUS INSTITUTE FOR BIOMEDICAL RESEARCH, S.A., priority 2012, dated 2018)
Counter-ions that a name gives are not always drawn. Like-named read-outs stand apart in the source and are kept apart here.

Legend:
uptake of norepinephrine = uptake of norepinephrine (Homo sapiens, UniProt P23975); assay: Uptake inhibition of norepinephrine, cellular assay; assay type: cell-based
Protocol: (§1) The effect of the compounds of the present invention as inhibitors of the uptake of norepinephrine and serotonin in cellular assays at concentrations that range from […] to 1 nM is determined following the methods described in Galli, A. et al. J Exp Biol 1995, 198(Pt. 10): 2197-212 and Gu, H. et al. J Biol Chem. 1994, 269(10):7124-30.

uptake of serotonin = uptake of serotonin (Homo sapiens, UniProt P31645); assay: Uptake inhibition of serotonin, cellular assay; assay type: cell-based
Sequence of uptake of serotonin (P31645 whole entry): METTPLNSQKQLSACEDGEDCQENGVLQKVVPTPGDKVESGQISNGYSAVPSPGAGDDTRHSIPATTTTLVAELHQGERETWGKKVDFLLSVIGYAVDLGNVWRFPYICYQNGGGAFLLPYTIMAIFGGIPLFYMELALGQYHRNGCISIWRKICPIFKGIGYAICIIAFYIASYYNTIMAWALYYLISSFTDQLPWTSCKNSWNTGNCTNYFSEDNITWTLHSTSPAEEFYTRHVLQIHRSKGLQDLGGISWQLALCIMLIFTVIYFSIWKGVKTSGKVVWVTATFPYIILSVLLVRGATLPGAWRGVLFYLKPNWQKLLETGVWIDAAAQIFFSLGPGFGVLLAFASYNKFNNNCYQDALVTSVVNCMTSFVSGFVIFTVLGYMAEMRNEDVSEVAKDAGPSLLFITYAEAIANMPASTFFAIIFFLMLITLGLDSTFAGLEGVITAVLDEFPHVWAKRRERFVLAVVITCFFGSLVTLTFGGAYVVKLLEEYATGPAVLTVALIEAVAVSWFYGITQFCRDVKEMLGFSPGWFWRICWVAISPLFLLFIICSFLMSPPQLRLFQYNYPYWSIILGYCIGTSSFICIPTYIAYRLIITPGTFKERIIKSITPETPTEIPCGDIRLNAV
Protocol: as §1

serotonin transporter = biological target: T1, serotonin transporter (Homo sapiens, UniProt P31645); assay: Serotonin transporter binding radioligand inhibition ([3H]-imipramine); conditions: read-out: serotonin binding inhibition
T1 construct: expressed in transfected cells; host or cells: CHO cells
T1 sequence (P31645 whole entry): as above
Source text: The serotonin transporter removes serotonin from the synaptic deft. The serotonin transporter terminates the effects of […], enabling its reuse by the presynaptic neuron.

[1] = biological target: T2, norepinephrine (NE) transporter (Homo sapiens, UniProt P23975); assay: Norepinephrine transporter binding radioligand inhibition ([3H]-nisoxetine); conditions: concentration 10 μM
T2 construct: expressed in transfected cells; host or cells: CHO cells
T2 sequence (P23975 whole entry): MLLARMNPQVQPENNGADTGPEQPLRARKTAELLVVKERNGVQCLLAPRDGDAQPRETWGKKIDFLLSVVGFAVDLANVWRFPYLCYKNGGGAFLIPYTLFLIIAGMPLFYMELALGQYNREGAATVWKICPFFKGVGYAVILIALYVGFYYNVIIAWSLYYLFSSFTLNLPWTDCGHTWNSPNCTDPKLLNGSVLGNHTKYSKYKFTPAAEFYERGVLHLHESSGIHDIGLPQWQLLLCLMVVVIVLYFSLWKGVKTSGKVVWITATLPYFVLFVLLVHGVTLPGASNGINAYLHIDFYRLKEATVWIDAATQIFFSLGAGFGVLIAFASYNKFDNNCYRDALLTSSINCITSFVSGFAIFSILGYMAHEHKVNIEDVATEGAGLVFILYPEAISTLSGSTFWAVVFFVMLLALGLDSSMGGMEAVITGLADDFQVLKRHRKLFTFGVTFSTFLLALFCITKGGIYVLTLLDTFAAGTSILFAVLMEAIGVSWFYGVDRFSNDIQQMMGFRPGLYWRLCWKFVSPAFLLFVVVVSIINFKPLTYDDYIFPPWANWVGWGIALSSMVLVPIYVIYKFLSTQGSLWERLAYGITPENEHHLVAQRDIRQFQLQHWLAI
Protocol: The norepinephrine (NE) transporter removes NE from the synaptic cleft. The NE transporter terminates the effects of […], enabling its reuse by the presynaptic neuron. The in vitro binding of the compounds of the invention to the NE transporter and the percent inhibition of control-specific binding ([^3H]-nisoxetine in human recombinant CHO cells) is determined following the method described in Pacholczyk et al., (Nature 1991, 350(6316): 350-4.

mice = assay: Novel object recognition test (acute); assay type: in vivo; conditions: 30 mg/kg i.p., same experimental conditions
Source text: The novel object recognition task is used to evaluate cognition, particularly memory recognition, in rodent models of CNS disorders. This test is based on the spontaneous tendency of rodents to spend more time exploring a novel object than a familiar one. The choice to explore the novel object reflects the use of learning and memory recognition. The novel object recognition test provides a measure of activity in a novel environment allowing tests for emotional reactivity and also for novel object recognition, a cognitive domain that depends on hippocampal functional integrity. Animals were habituated to the presence of two identical objects (LEGO® pieces) during a single session of 5 minutes (training) and sniffing (exploration of an object was defined as pointing the nose to the object at a distance of <1 cm and/or touching it with the nose). Mice were injected with saline or with the compound to be tested and returned to their home cages. At 24 hours the animals were introduced in the same open field again with the same two items (familiarization), and again exploration in each of them for 5 minutes was registered. One hour later, the mice were retested in the open field for 3 minutes, but this time with one of the “familiar” objects replaced by a new one (test). To analyze cognitive performance, a discrimination index was calculated as the difference in time exploring the novel and familiar object, expressed as the ratio of the total time spent exploring both objects, which made it possible to adjust for any differences in total exploration time. This test is useful for assessing impaired cognitive ability in transgenic strains of mice and evaluating novel chemical entities for their effect on cognition (Zhang, R. J Alzheimers Dis 2012, 31(4): 801-12). […] Neuroplasticity 2007, 26496).

[2] = read-out: Norepinephrine reuptake inhibition (IC50 μM)
[3] = read-out: Serotonin reuptake inhibition (IC50 μM)
[4] = Norepinephrine reuptake inhibition (IC50 μM)
[5] = Serotonin reuptake inhibition (IC50 μM)

Sequence of uptake of norepinephrine (P23975 whole entry): as above

Structure (SMILES) | IC50 (uptake of norepinephrine; [2]) [µM] | IC50 (uptake of serotonin; [3]) [µM] | inhibition at 10 µM (serotonin transporter; concentration 10 μM) [%] | inhibition at 10 µM [1] [%] | IC50 (uptake of norepinephrine; [4]) [µM] | inhibition at 10 µM (serotonin transporter) [%] | IC50 (uptake of serotonin; [5]) [µM] | cognitive improvement (mice)
CNCCC(Oc1ccc(CCO)cc1)c1ccccc1 (single isomer, unassigned) [Example 6, 2-[4-[3-(Methylamino)-1-phenylpropoxy]phenyl]ethanol ferulic acid salt] | 1.6 to 2.9 | 2.5 to 4.8 | – | – | – | – | – | –
CNCCC(Oc1ccc(CCO)cc1)c1ccccc1 (single isomer, unassigned) [Example 7, 2-[4-[3-(Methylamino)-1-phenylpropoxy]phenyl]ethanol caffeic acid salt] | 1.6 to 2.9 | 2.5 to 4.8 | 68 to 82 | – | – | – | – | –
O=C1CCCN1CCOc1ccc(CCO)cc1 [Example 1, 1-[2-[4-(2-Hydroxyethyl)phenoxy]ethyl]pyrrolidin-2-one] | 1.6 to 2.9 | 2.5 to 4.8 | 68 to 82 | 65 to 90 | – | – | – | –
CNCCC(Oc1ccc(CCO)cc1)c1ccccc1 [Example 5, 2-[4-[3-(Methylamino)-1-phenylpropoxy]phenyl]ethanol L-ascorbic acid salt] | – | – | – | 65 to 90 | 1.6 to 2.9 | 68 to 82 | 2.5 to 4.8 | –
CNCCC(Oc1ccc(CCO)cc1)c1ccccc1 (stereo not shown) [Example 8, 2-[4-[3-(Methylamino)-1-phenylpropoxy]phenyl]ethanol valproic acid salt] | – | – | – | – | 1.6 to 2.9 | – | 2.5 to 4.8 | –
CNCCC(Oc1ccc(CCO)cc1)c1ccccc1 [Example 9, 2-[4-[3-(Methylamino)-1-phenylpropoxy]phenyl]ethanol (R)-lipoic acid salt] | – | – | – | – | 1.6 to 2.9 | – | 2.5 to 4.8 | –
CNCCC(Oc1ccc(CCOC(C)=O)cc1)c1ccccc1 (stereo not shown) [Example 10, 4-[3-(Methylamino)-1-phenylpropoxy]phenethyl acetate hydrochloride] | 1.6 to 2.9 | 2.5 to 4.8 | 68 to 82 | 65 to 90 | – | – | – | –
CCCC(CCC)C(=O)N(C)CCC(Oc1ccc(CCO)cc1)c1ccccc1 (stereo not shown) [Example 11, N-[3-[4-(2-Hydroxyethyl)phenoxy]-3-phenylpropyl]-N-methyl-2-propylpentanamide] | 1.6 to 2.9 | 2.5 to 4.8 | 68 to 82 | 65 to 90 | – | – | – | –
CNCC[C@@H](Oc1ccc(CCO)cc1)c1cccs1 [Example 13, (R)-2-[4-[3-(Methylamino)-1-(thiophen-2-yl)propoxy]phenyl]ethanol] | 2.8 | 2.6 | 79 | 80 | – | – | – | –
CNCCC(Oc1ccc(CCCCO)cc1)c1ccccc1 (stereo not shown) [Example 14, 4-[4-[3-(Methylamino)-1-phenylpropoxy]phenyl]butan-1-ol hydrochloride] | 0.74 | 0.32 | 89 | 85 | – | – | – | –
CNCCC(Oc1ccc(CCCO)cc1)c1ccccc1 (stereo not shown) [Example 16, 3-[4-[3-(Methylamino)-1-phenylpropoxy]phenyl]propan-1-ol hydrochloride] | 0.46 | 2.36 | 78 | 90 | – | – | – | –
CNCCC(Oc1ccc(CO)cc1)c1ccccc1 (stereo not shown) [Example 17, [4-[3-(Methylamino)-1-phenylpropoxy]phenyl]methanol hydrochloride] | 0.13 | 0.42 | 97 | 94 | – | – | – | –
CNCCC(Oc1cc(CO)cc(CO)c1)c1ccccc1 (stereo not shown) [Example 19, [5-[3-(Methylamino)-1-phenylpropoxy]-1,3-phenylene]dimethanol hydrochloride] | 1.59 | 4.35 | 79 | 75 | – | – | – | –
OCCc1ccc(OC[C@@H]2CNCC[C@H]2c2ccc(F)cc2)cc1 [Example 30, 2-[4-[[(3S,4R)-4-(4-Fluorophenyl)piperidin-3-yl]methoxy]phenyl]ethanol] | 1.6 to 2.9 | 2.5 to 4.8 | 68 to 82 | 65 to 90 | – | – | – | –
CNCCC(Oc1ccc(C(F)(F)F)cc1)c1ccccc1 (stereo not shown) [Fluoxetine, reference compound] | – | – | – | – | – | – | – | absence of cognitive improvement
CCN(CC)C(=O)C1(c2ccccc2)CC1CN (stereo not shown) [milnacipran, reference compound] | – | – | – | – | – | – | – | absence of cognitive improvement

Continued, in another order:

IC50 (uptake of norepinephrine; [2]) [µM] | IC50 (uptake of serotonin; [3]) [µM] | inhibition at 10 µM (serotonin transporter; concentration 10 μM) [%] | inhibition at 10 µM [1] [%] | Structure (SMILES) | IC50 (uptake of norepinephrine; [4]) [µM] | inhibition at 10 µM (serotonin transporter) [%] | IC50 (uptake of serotonin; [5]) [µM] | cognitive improvement (mice)
1.6 to 2.9 | 2.5 to 4.8 | 68 to 82 | 65 to 90 | CN(CCC(Oc1ccc(/C=C/CO)cc1)c1ccccc1)C(=O)OC(C)(C)C (stereo not shown) [Example 15, (E)-tert-Butyl [3-[4-(3-hydroxyprop-1-enyl)phenoxy]-3-phenylpropyl](methyl)carbamate] | – | – | – | –
1.6 to 2.9 | 2.5 to 4.8 | 68 to 82 | 65 to 90 | CNCCC(Oc1cc(CCO)cc(CCO)c1)c1ccccc1 (stereo not shown) [Example 20, 2,2′-[5-[3-(Methylamino)-1-phenylpropoxy]-1,3-phenylene]diethanol] | – | – | – | –
1.6 to 2.9 | 2.5 to 4.8 | 68 to 82 | 65 to 90 | CNCCC(Oc1cc(CCCO)cc(CCCO)c1)c1ccccc1 (stereo not shown) [Example 21, 3,3′-[5-[3-(Methylamino)-1-phenylpropoxy]-1,3-phenylene]dipropan-1-ol] | – | – | – | –
1.6 to 2.9 | 2.5 to 4.8 | 68 to 82 | 65 to 90 | CNCCC(Oc1cc(CCCCO)cc(CCCCO)c1)c1ccccc1 (stereo not shown) [Example 22, 4,4′-[5-[3-(Methylamino)-1-phenylpropoxy]-1,3-phenylene]dibutan-1-ol] | – | – | – | –
1.6 to 2.9 | 2.5 to 4.8 | 68 to 82 | 65 to 90 | CNCCC(Oc1ccc(CCO[C@@H]2O[C@H](CO)[C@@H](O)[C@H](O)[C@H]2O)cc1)c1ccccc1 (stereo partly drawn) [Example 23, (2R,3S,4S,5R,6R)-2-(Hydroxymethyl)-6-[4-[3-(methylamino)-1-phenylpropoxy]phenethoxy]tetrahydro-2H-pyran-3,4,5-triol] | – | – | – | –
1.6 to 2.9 | 2.5 to 4.8 | 68 to 82 | 65 to 90 | CN(C)CCC(Oc1ccc(CCO)cc1)c1ccccc1 (stereo not shown) [Example 24, 2-[4-(3-Dimethylamino-1-phenylpropoxy)phenyl]ethanol] | – | – | – | –
1.6 to 2.9 | 2.5 to 4.8 | 68 to 82 | 65 to 90 | CNCCC(Oc1ccc(C/C=C/CO)cc1)c1ccccc1 (stereo not shown) [Example 25, 4-[4-(3-Methylamino-1-phenylpropoxy)phenyl]but-2-en-1-ol] | – | – | – | –
1.6 to 2.9 | 2.5 to 4.8 | 68 to 82 | 65 to 90 | CNCCC(Oc1ccc(CCCCCCO)cc1)c1ccccc1 (stereo not shown) [Example 26, 6-[4-(3-Methylamino-1-phenylpropoxy)phenyl]hexan-1-ol] | – | – | – | –
1.6 to 2.9 | 2.5 to 4.8 | 68 to 82 | 65 to 90 | CNCCC(Oc1ccc(/C=C/CCCCO)cc1)c1ccccc1 (stereo not shown) [Example 27, 6-[4-(3-Methylamino-1-phenylpropoxy)phenyl]hex-5-en-1-ol] | – | – | – | –
1.6 to 2.9 | 2.5 to 4.8 | 68 to 82 | 65 to 90 | CNCC[C@H](Oc1ccc(CCO)cc1)c1cccs1 [Example 28, (S)2-[4-(3-Methylamino-1-thiophen-2-ylpropoxy)phenyl]ethanol] | – | – | – | –
1.6 to 2.9 | 2.5 to 4.8 | 68 to 82 | 65 to 90 | OCCc1ccc(OC(c2ccccc2)C2CNCCO2)cc1 (stereo not shown) [Example 29, 2-[4-(Morpholin-2-yl(phenyl)methoxy)phenyl]ethanol] | – | – | – | –
1.6 to 2.9 | 2.5 to 4.8 | 68 to 82 | 65 to 90 | CN(C)CC(Oc1ccc(CCO)cc1)C1CCCCC1O (stereo not shown) [Example 31, 2-[2-Dimethylamino-1-[4-(2-hydroxyethyl)phenoxy]ethyl]cyclohexanol] | – | – | – | –
1.6 to 2.9 | 2.5 to 4.8 | 68 to 82 | 65 to 90 | CN(C)CC(Oc1ccc(CCO)cc1)C1(O)CCCCC1 (stereo not shown) [Example 32, 1-[2-Dimethylamino-1-[4-(2-hydroxyethyl)phenoxy]-ethyl]-cyclohexanol] | – | – | – | –
